Results from patent US4556660A, “N-(Bicyclic heterocyclyl)-4-piperidinamines” (Janssen Pharmaceutica N.V., priority 1983, dated 1985).
Like-named read-outs stand apart in the source and are kept apart here.

Experiments:
[1] = test system: compound 48/80-induced lethality; test: Protection of rats from compound 48/80-induced lethality; type: in vivo, Male rats of an inbred Wistar strain; conditions: Rattus norvegicus, 4 h, read-out: compound 48/80 lethality test rats-ED50
Protocol: Protection of rats from compound 48/80-induced lethality
The protection from compound 48/80-induced lethal circulatory collapse appears to be a simple way of evaluating quantitatively the antihistaminic activity of test compounds. Male rats of an inbred Wistar strain, weighing 240-260 g were used in the experiment. After overnight starvation the rats were transferred to conditioned laboratories (temp.=21±1° C., relative humidity-65±5%).
The rats were treated subcutaneously or orally with a test compound or with the solvent (NaCl solution, 0.9%). […] Survival after 4 hours is therefore considered to be a safe criterion of a protective effect of drug administration.
The ED50 -values of the compounds of formula (I) and the intermediates of formula (XVIII) are listed in the first column of table 1 and table 2. Said ED50 -values are the values in mg/kg body weight at which the tested compounds protect 50% of the tested animals against compound 48/80-induced lethality.

[2] = test system: serotonin; compound 48/80-induced gastric lesions; test: Antagonistic activity on the effects of serotonin in the gastric lesion test (lesions induced by compound 48/80); type: in vivo, Male rats of a Wistar inbred strain
Protocol: Antagonistic activity on the effects of serotonin in the gastric lesion test
Male rats of a Wistar inbred strain, weighing 220-250 g, were starved overnight, water being available ad libitum. The test compounds were administered orally as a solution or as a suspension in aqueous medium. A control rat and a "blank" rat received the test compound. One hour later 5-[4-(diphenylmethyl)-1-piperazinylmethyl]-1-methyl-1H-benzimidazole-2-methanol was administered subcutaneously to all rats at the dose of 2.5 mg/kg.
Four hours after the intravenous injection of compound 48/80, the rats were decapitated and the stomachs were removed. Subsequently the stomachs were inspected for distension and contents (blood, fluid, food) and thoroughly rinsed. The macroscopic lesions were scored from 0 to +++, 0 corresponding to complete absence of visible lesions and the highest score corresponding to reddish rough patches covering more than half the glandular area.

[3] = Rattus norvegicus, po; read-out: gastric lesion test ED50
[4] = Rattus norvegicus, po, read-out: gastric lesion test ED50

Row | Compound | ED50 [1] [mg/kg] | ED50 [2, 3] [mg/kg] | ED50 [2, 4] [mg/kg]
1 | O.O=c1nc(NCCN2CCC(Nc3nc4ccccc4n3Cc3ccc(F)cc3)CC2)[nH]cc1Cc1ccc(Cl)cc1 [Compound 85, 5-[(4-chlorophenyl)methyl]-2-[[2-[4-[[1-[(4-fluorophenyl)methyl]-1H-benzimidazol-2-yl]amino]-1-piperidinyl]ethyl]amino]-4(1H)-pyrimidinone monohydrate] | 1.25 | 2.5 | –
2 | Fc1ccc(Cn2c(NC3CCN(CCCCCNc4ncccn4)CC3)nc3ccccc32)cc1 [Compound 22] | 0.31 | – | 0.08
3 | CN(CCN1CCC(Nc2nc3ccccc3n2Cc2ccc(F)cc2)CC1)c1ncccn1 [Compound 10] | 0.08 | 0.63 | –
4 | Cc1ccc(Cn2c(NC3CCN(CCNc4ncccn4)CC3)nc3ccccc32)cc1 [Compound 67, 1-[(4-methylphenyl)methyl]-N-[1-[2-[(2-pyrimidinyl)amino]ethyl]-4-piperidinyl]-1H-benzimidazol-2-amine] | 0.16 | – | 0.63
5 | Nc1cc(NCCN2CCC(Nc3nc4ccccc4n3Cc3ccc(F)cc3)CC2)nc(N)n1 [Compound 34] | 0.08 | 0.16 | –
6 | O.O=c1nc(SCCN2CCC(Nc3nc4ccccc4n3Cc3ccc(F)cc3)CC2)[nH]c2ccccc12 [Compound 92, 2-[2-[4-[[1-[(4-fluorophenyl)methyl]-1H-benzimidazol-2-yl]amino]-1-piperidinyl]ethylthio]-4(1H)-quinazolinone monohydrate] | 0.31 | 2.5 | –
7 | NC(=O)c1ccc(NCCN2CCC(Nc3nc4ccccc4n3Cc3ccc(F)cc3)CC2)nc1 [Compound 42] | 0.04 | – | 0.08
8 | Cc1ccc(Cn2c(NC3CCN(CCNc4ncccn4)CC3)nc3ccccc32)o1 [Compound 21] | 0.04 | 0.63 | –
9 | N#CCN1CCC(Nc2nc3ncccc3n2Cc2ccc(F)cc2)CC1 [Intermediate 79] | 0.16 | 0.63 | –
10 | O=[N+]([O-])c1ccc(NCCN2CCC(Nc3nc4ccccc4n3Cc3ccc(F)cc3)CC2)nc1 [Compound 13] | 0.31 | 2.5 | –
11 | Fc1ccc(Cn2c(NC3CCN(CCNc4ccc(Br)cn4)CC3)nc3ccccc32)cc1 [Compound 39] | 0.31 | 2.5 | –
12 | CN(c1nc2ccccc2n1Cc1ccc(F)cc1)C1CCN(CCNc2ncccn2)CC1 [Compound 75] | 0.08 | – | 0.63
13 | Fc1ccc(Cn2c(NC3CCN(CCNc4ncnc5ccccc45)CC3)nc3ccccc32)cc1 | 0.08 | 2.5 | –
14 | O=C(c1ccccc1)N(CCN1CCC(Nc2nc3ccccc3n2Cc2ccc(F)cc2)CC1)c1ncccn1 [Compound 100, N-[2-[4-[[1-fluorophenyl)methyl]-1H-benzimidazol-2-yl]amino]-1-piperidinyl]ethyl]-N-(2-pyrimidinyl)benzamide (E)-2-butenedioate (1:2)] | 0.08 | 0.63 | –
15 | Fc1ccc(Cn2c(NC3CCN(C4CCN(c5ccccn5)CC4)CC3)nc3ccccc32)cc1 [Compound 97, N-[1-[(4-fluorophenyl)methyl]-1H-benzimidazol-2-yl]-1'-(2-pyridinyl)-[1,4'-bipiperidin]-4-amine (E)-2-butenedioate (2:3) monohydrate] | 0.63 | 2.5 | –
16 | Fc1ccc(Cn2c(NC3CCN(CCOCc4ccccn4)CC3)nc3ccccc32)cc1.O=C(O)/C=C/C(=O)O.O=C(O)/C=C/C(=O)O [Compound 84, 1-[(4-fluorophenyl)methyl]-N-[1-[2-(2-pyridinylmethoxy)ethyl]-4-piperidinyl]-1H-benzimidazol-2-amine (E)-2-butenedioate (1:2)] | 0.08 | 2.5 | –
17 | CSc1nccc(OCCN2CCC(Nc3nc4ccccc4n3Cc3ccc(F)cc3)CC2)n1 [Compound 79, 1-[(4-fluorophenyl)methyl]-N-[1-[2-[[2-(methylthio)-4-pyrimidinyl]oxy]ethyl]-4-piperidinyl]-1H-benzimidazol-2-amine] | 0.16 | 2.5 | –
18 | CN(CCN1CCC(Nc2nc3ccccc3n2Cc2ccc(F)cc2)CC1)c1ccc(Cl)cn1 [Compound 56] | 0.31 | 1.25 | –
19 | Cc1ccc(Cn2c(NC3CCN(CCNc4ccc(Br)cn4)CC3)nc3ccccc32)cc1 [Compound 51] | 0.02 | – | 0.08

Row | Compound | ED50 [1] [mg/kg] | ED50 [2, 3] [mg/kg] | ED50 [2, 4] [mg/kg]
20 | O=c1nc(NCCN2CCC(Nc3nc4ccccc4n3Cc3ccc(F)cc3)CC2)[nH]c2ccccc12 [Compound 88, 2-[[2-[4-[[1-[(4-fluorophenyl)methyl]-1H-benzimidazol-2-yl]amino]1-piperidinyl]ethyl]amino]-4(1H)-quinazolinone] | 0.63 | 2.5 | –
21 | Fc1ccc(Cn2c(NC3CCN(CCOc4ccc5ccccc5n4)CC3)nc3ccccc32)cc1 [Compound 77, 1-[(4-fluorophenyl)methyl]-N-[1-[2-(2-quinolinyloxy)ethyl]-4-piperidinyl]-1H-benzimidazol-2-amine] | 1.25 | 2.5 | –
22 | Oc1ccc2c(c1)nc(NC1CCN(CCNc3ncccn3)CC1)n2Cc1ccc(F)cc1 | 0.16 | 2.5 | –
23 | Cl.Cl.Fc1ccc(Cn2c(NC3CCN(CCNc4ccnc(Cl)n4)CC3)nc3ccccc32)cc1.O [Compound 60, N-[1-[2-[(2-chloro-4-pyrimidinyl)amino]ethyl]-4-piperidinyl]-1-[(4-fluorophenyl)methyl]1H-benzimidazol-2-amine dihydrochloride monohydrate] | 0.31 | 2.5 | –
24 | Fc1ccc(Cn2c(NC3CCN(CCNC(=S)Nc4ccccn4)CC3)nc3ccccc32)cc1 [Compound 105, N-[2-[4-[[1-[(4-fluorophenyl)methyl]-1H-benzimidazol-2-yl]amino]-1-piperidinyl]ethyl]-N'-(2-pyridinyl)thiourea] | 0.63 | 0.63 | –
25 | Fc1ccc(Cn2c(NC3CCN(CCSc4ncccn4)CC3)nc3ccccc32)cc1 [Compound 91, 1-[(4-fluorophenyl)methyl]-N-[1-[2-(2-pyrimidinylthio)ethyl]-4-piperidinyl]-1H-benzimidazol-2-amine] | 0.16 | 0.16 | –
26 | OCCN1CCC(Nc2nc3ncccc3n2Cc2ccc(F)cc2)CC1 [CH2 CH2 OH 4-FC6 H4 CH2 -- 4 base] | 0.01 | 0.63 | –
27 | Nc1cccnc1NC(=S)NCCN1CCC(Nc2nc3ccccc3n2Cc2ccc(F)cc2)CC1 [Compound 107, N-(3-amino-2-pyridinyl)-N'-[2-[4-[[1-[(4-fluorophenyl)methyl]-1H-benzimidazol-2-yl]amino]-1-piperidinyl]ethyl]thiourea] | 0.16 | 0.31 | –
28 | c1cnc(NCCN2CCC(Nc3nc4ccccc4n3Cc3ccoc3)CC2)nc1 [Compound 20] | 0.04 | 0.63 | –
29 | Fc1ccc(Cn2c(NC3CCN(CCNc4ccncn4)CC3)nc3ccccc32)cc1 [Compound 94, 1-[(4-fluorophenyl)methyl]-N-[1-[2-(4-pyrimidinylamino)ethyl]-4-piperidinyl]-1H-benzimidazol-2-amine hemihydrate] | 0.08 | 1.25 | –
30 | COc1ccc2nc(NC3CCN(CCNc4ncccn4)CC3)n(Cc3ccc(F)cc3)c2c1 | 1.25 | 2.5 | –
31 | Clc1ccc(Cn2c(NC3CCN(CCNc4ncccn4)CC3)nc3ccccc32)cc1 [Compound 68, 1-[(4-chlorophenyl)methyl]-N-[1-[2-(2-pyrimidinylamino)ethyl]-4-piperidinyl]-1H-benzimidazol-2-amine] | 0.16 | 2.5 | –
32 | O=[N+]([O-])c1cc[n+]([O-])cc1NCCN1CCC(Nc2nc3ccccc3n2Cc2ccc(F)cc2)CC1 [Compound 14] | 0.04 | 1.25 | –
33 | c1ccc(Cn2c(NC3CCN(CCNc4ncccn4)CC3)nc3ccccc32)nc1 [Compound 15] | 0.04 | 0.63 | –
34 | Cc1cc(NCCN2CCC(Nc3nc4ccccc4n3Cc3ccc(F)cc3)CC2)nc(Cl)n1 [Compound 61, N-[1-[2-[(2-chloro-6-methyl-4-pyrimidinyl)amino]ethyl]-4-piperidinyl]-1-[(4-fluorophenyl)methyl]-1H-benzimidazol-2-amine] | 0.08 | 2.5 | –
35 | Fc1ccc(Cn2c(NC3CCN(CCCCNc4ncccn4)CC3)nc3ccccc32)cc1 [Compound 2] | 0.16 | 2.5 | –
36 | Nc1nccnc1C(=O)NCCN1CCC(Nc2nc3ccccc3n2Cc2ccc(F)cc2)CC1 [Compound 113, 3-amino-N-[2-[4-[[1-[(4-fluorophenyl)methyl]-1H-benzimidazol-2-yl]amino]-1-piperidinyl]ethyl]-2-pyrazinecarboxamide] | 0.04 | 0.16 | –
37 | c1ccc(Cn2c(NC3CCN(CCNc4ncccn4)CC3)nc3cccnc32)nc1 [Compound 27, 3-(2-pyridinylmethyl)-N-[1-[2-(2-pyrimidinylamino)ethyl]-4-piperidinyl]3H-imidazo[4,5-b]pyridin-2-amine (E)-2-butenedioate (2:3)] | 0.04 | 2.5 | –
